From US20020137929A1, “1 - (3-heterocyclylphenyl) isothiourea, -isourea, -guanidine and -amidine herbicidal agents” (Intellectual Property Department, BASF Aktiengesellschaft, priority 1998, published 2002)

Legend:
[1] = system: ABUTH (Velvetleaf); assay: Preemergence herbicidal evaluation; format: in vivo, Abutilon theophrasti; settings: rated 4-5 weeks after treatment
Procedure, shortened: (§1)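 Each species is sown separately in potting soil over roughly an inch of soil before any emergence. The soil surface then receives an aqueous acetone spray delivering about 0.0156 to 0.500 kg/ha of compound. After four to five weeks, injury is scored from 0 to 9 relative to a control.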

[2] = system: CASOB (Sicklepod); assay: Preemergence herbicidal evaluation; format: in vivo, Cassia obtusifolia; settings: rated 4-5 weeks after treatment
Procedure, shortened: as §1

[3] = system: SETVI (Foxtail, Green); assay: Preemergence herbicidal evaluation; format: in vivo, Setaria viridis; settings: rated 4-5 weeks after treatment
Procedure, shortened: as §1

[4] = system: SETVI (Foxtail, Green); assay: Postemergence herbicidal evaluation; format: in vivo, Setaria viridis; settings: postemergence
Procedure, shortened: (§2)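 Herbicidal effect was judged by eye on a 0–9 scale covering stand, vigor, deformity, size and chlorosis, compared with controls, four to five weeks after seedlings about two weeks old were sprayed (40 psi, ~0.0156–0.500 kg/ha).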

[5] = system: ECHCG (Barnyardgrass); assay: Postemergence herbicidal evaluation; format: in vivo, Echinochloa crus-galli; settings: postemergence
Procedure, shortened: as §2

[6] = system: MOOVA (Monochoria); assay: Preemergence weed control under flooded paddy conditions; format: in vivo, Monochoria vaginalis; settings: rated 3-4 weeks after treatment
Procedure, shortened: (§3)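 Silt loam, seeds in top 0.5 cm; flood held 1.5-3 cm; test cpd as acetone/water 50/50 into flood water, ~0.0313-0.500 kg/ha a.i.; greenhouse 3-4 wk; visual 0-9 score vs control.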

[7] = system: ABUTH (Velvetleaf); assay: Postemergence herbicidal evaluation; format: in vivo, Abutilon theophrasti; settings: postemergence
Procedure, shortened: as §2

[8] = system: ORYSAT (Rice, Tebonnet); assay: Postemergence herbicidal evaluation; format: in vivo, Oryza sativa, (L.) Tebonnet; settings: postemergence
Procedure, shortened: as §2

[9] = system: SAGPY (Arrowhead (Pygmaea)); assay: Preemergence weed control under flooded paddy conditions; format: in vivo, Sagittaria pygmaea; settings: rated 3-4 weeks after treatment
Procedure, shortened: as §3

[10] = system: GLXMAW (Soybean, Williams); assay: Postemergence herbicidal evaluation; format: in vivo, Glycine max, (L.) Merr. cv Williams; settings: postemergence
Procedure, shortened: as §2

[11] = system: TRZAWR (Wheat, Winter, cv Riband); assay: Postemergence herbicidal evaluation; format: in vivo, Triticum aestivum; settings: postemergence
Procedure, shortened: as §2

[12] = system: AMBEL (Ragweed, Common); assay: Postemergence herbicidal evaluation; format: in vivo, Ambrosia artemisifolia; settings: postemergence
Procedure, shortened: as §2

[13] = rate 0.0156 kg/ha, rating scale 0-9
[14] = rate 0.0313 kg/ha, rating scale 0-9
[15] = rate 0.0625 kg/ha, rating scale 0-9
[16] = rate 0.1250 kg/ha, rating scale 0-9
[17] = rate 0.2500 kg/ha, rating scale 0-9

Cn1c(C(F)(F)F)cc(=O)n(-c2cc(N=C3SCC(=O)N3CC(=O)OCC3CCCCC3)c(Cl)cc2F)c1=O [Compound 123, Cyclohexylmethyl 2-{{2-chloro-5-[3,6-dihydro-3-methyl-2,6-dioxo-4-(trifluoromethyl)-1(2H)-pyrimidinyl]-4-fluorophenyl}imino}-4-oxo-3-thiazolidineacetate]
Preemergence herbicidal rating ABUTH ([1]; rate 0.0156 kg/ha): 9.0
Preemergence herbicidal rating ABUTH ([1]; rate 0.0313 kg/ha): 9.0
Preemergence herbicidal rating ABUTH ([1]; rate 0.0625 kg/ha): 9.0
Preemergence herbicidal rating ABUTH ([1]; rate 0.1250 kg/ha): 9.0
Preemergence herbicidal rating ABUTH ([1]; rate 0.2500 kg/ha): 9.0
Preemergence herbicidal rating ABUTH ([1]; rate 0.5000 kg/ha): 9.0
Preemergence herbicidal rating CASOB ([2]; rate 0.0156 kg/ha): 0.0
Preemergence herbicidal rating CASOB ([2]; rate 0.0313 kg/ha): 0.0
Preemergence herbicidal rating CASOB ([2]; rate 0.0625 kg/ha): 0.0
Preemergence herbicidal rating CASOB ([2]; rate 0.1250 kg/ha): 0.0
Preemergence herbicidal rating CASOB ([2]; rate 0.5000 kg/ha): 3.0
Preemergence herbicidal rating SETVI ([3]; rate 0.0156 kg/ha): 7.0
Preemergence herbicidal rating SETVI ([3]; rate 0.0313 kg/ha): 7.0
Preemergence herbicidal rating SETVI ([3]; rate 0.0625 kg/ha): 7.0
Preemergence herbicidal rating SETVI ([3]; rate 0.1250 kg/ha): 9.0
Preemergence herbicidal rating SETVI ([3]; rate 0.2500 kg/ha): 9.0
Preemergence herbicidal rating SETVI ([3]; rate 0.5000 kg/ha): 9.0
Herbicidal rating SETVI ([4]; rate 0.0156 kg/ha): 9.0
Herbicidal rating SETVI ([4]; rate 0.0313 kg/ha): 9.0
Herbicidal rating SETVI ([4]; rate 0.0625 kg/ha): 9.0
Herbicidal rating SETVI ([4]; rate 0.1250 kg/ha): 9.0
Herbicidal rating ECHCG ([5]; rate 0.0156 kg/ha): 5.0
Herbicidal rating ECHCG ([5]; rate 0.0313 kg/ha): 5.0
Herbicidal rating ECHCG ([5]; rate 0.0625 kg/ha): 7.0
Herbicidal rating ECHCG ([5]; rate 0.1250 kg/ha): 9.0
herbicidal effect rating, MOOVA ([6]; 0.0313 kg/ha): 6.0
herbicidal effect rating, MOOVA ([6]; 0.0625 kg/ha): 7.0
herbicidal effect rating, MOOVA ([6]; 0.1250 kg/ha): 9.0
herbicidal effect rating, MOOVA ([6]; 0.2500 kg/ha): 9.0
Herbicidal rating ABUTH ([7]; rate 0.0156 kg/ha): 9.0
Herbicidal rating ABUTH ([7]; rate 0.0313 kg/ha): 9.0
Herbicidal rating ABUTH ([7]; rate 0.0625 kg/ha): 9.0
Herbicidal rating ABUTH ([7]; rate 0.1250 kg/ha): 9.0
Herbicidal rating ORYSAT ([8]; rate 0.0156 kg/ha): 4.0
Herbicidal rating ORYSAT ([8]; rate 0.0313 kg/ha): 4.0
Herbicidal rating ORYSAT ([8]; rate 0.0625 kg/ha): 5.5
Herbicidal rating ORYSAT ([8]; rate 0.1250 kg/ha): 5.5
herbicidal effect rating, SAGPY ([9]; 0.0313 kg/ha): 5.0
herbicidal effect rating, SAGPY ([9]; 0.0625 kg/ha): 6.0
herbicidal effect rating, SAGPY ([9]; 0.1250 kg/ha): 6.0
herbicidal effect rating, SAGPY ([9]; 0.2500 kg/ha): 8.0
Herbicidal rating GLXMAW ([10]; rate 0.0156 kg/ha): 6.5
Herbicidal rating GLXMAW ([10]; rate 0.0313 kg/ha): 6.5
Herbicidal rating GLXMAW ([10]; rate 0.0625 kg/ha): 8.0
Herbicidal rating GLXMAW ([10]; rate 0.1250 kg/ha): 9.0
Herbicidal rating TRZAWR ([11]; rate 0.0156 kg/ha): 4.0
Herbicidal rating TRZAWR ([11]; rate 0.0313 kg/ha): 4.5
Herbicidal rating TRZAWR ([11]; rate 0.0625 kg/ha): 6.0
Herbicidal rating TRZAWR ([11]; rate 0.1250 kg/ha): 6.5
Herbicidal rating AMBEL ([12]; rate 0.0156 kg/ha): 9.0
Herbicidal rating AMBEL ([12]; rate 0.0313 kg/ha): 9.0
Herbicidal rating AMBEL ([12]; rate 0.0625 kg/ha): 9.0
Herbicidal rating AMBEL ([12]; rate 0.1250 kg/ha): 9.0

Cn1c(C(F)(F)F)cc(=O)n(-c2cc(N=C3SCC(=O)N3Cc3cccc(Cl)c3)c(Cl)cc2F)c1=O [Compound 136, 3-{4-Chloro-5-{[3-(m-chlorobenzyl)-4-oxo-2-thiazolidinylidene]amino}-2-fluorophenyl}-1-methyl-6-(trifluoromethyl)-2,4(1H,3H)-pyrimidinedione]
Preemergence herbicidal rating ABUTH [1, 13]: 4.0
Preemergence herbicidal rating ABUTH [1, 14]: 9.0
Preemergence herbicidal rating ABUTH [1, 15]: 9.0
Preemergence herbicidal rating ABUTH [1, 16]: 9.0
Preemergence herbicidal rating ABUTH [1, 17]: 9.0
Preemergence herbicidal rating CASOB [2, 13]: 0.0
Preemergence herbicidal rating CASOB [2, 14]: 0.0
Preemergence herbicidal rating CASOB [2, 15]: 0.0
Preemergence herbicidal rating CASOB [2, 16]: 0.0
Preemergence herbicidal rating CASOB [2, 17]: 0.0
Preemergence herbicidal rating SETVI [3, 13]: 0.0
Preemergence herbicidal rating SETVI [3, 14]: 0.0
Preemergence herbicidal rating SETVI [3, 15]: 2.0
Preemergence herbicidal rating SETVI [3, 16]: 4.0
Preemergence herbicidal rating SETVI [3, 17]: 7.0
Herbicidal rating SETVI ([4]; rate 0.0156 kg/ha): 4.0
Herbicidal rating SETVI ([4]; rate 0.0313 kg/ha): 6.0
Herbicidal rating SETVI ([4]; rate 0.0625 kg/ha): 6.0
Herbicidal rating ECHCG ([5]; rate 0.0156 kg/ha): 2.0
Herbicidal rating ECHCG ([5]; rate 0.0313 kg/ha): 3.0
Herbicidal rating ECHCG ([5]; rate 0.0625 kg/ha): 3.0
herbicidal effect rating, MOOVA ([6]; 0.0313 kg/ha): 3.0
herbicidal effect rating, MOOVA ([6]; 0.0625 kg/ha): 4.0
herbicidal effect rating, MOOVA ([6]; 0.1250 kg/ha): 9.0
herbicidal effect rating, MOOVA ([6]; 0.2500 kg/ha): 9.0
Herbicidal rating ABUTH ([7]; rate 0.0156 kg/ha): 9.0
Herbicidal rating ABUTH ([7]; rate 0.0313 kg/ha): 9.0
Herbicidal rating ABUTH ([7]; rate 0.0625 kg/ha): 9.0
Herbicidal rating ORYSAT ([8]; rate 0.0156 kg/ha): 2.5
Herbicidal rating ORYSAT ([8]; rate 0.0313 kg/ha): 3.0
Herbicidal rating ORYSAT ([8]; rate 0.0625 kg/ha): 2.5
herbicidal effect rating, SAGPY ([9]; 0.0313 kg/ha): 0.0
herbicidal effect rating, SAGPY ([9]; 0.0625 kg/ha): 0.0
herbicidal effect rating, SAGPY ([9]; 0.1250 kg/ha): 3.0
herbicidal effect rating, SAGPY ([9]; 0.2500 kg/ha): 3.0
Herbicidal rating GLXMAW ([10]; rate 0.0156 kg/ha): 4.5
Herbicidal rating GLXMAW ([10]; rate 0.0313 kg/ha): 5.5
Herbicidal rating GLXMAW ([10]; rate 0.0625 kg/ha): 5.5
Herbicidal rating TRZAWR ([11]; rate 0.0156 kg/ha): 2.5
Herbicidal rating TRZAWR ([11]; rate 0.0313 kg/ha): 3.0
Herbicidal rating TRZAWR ([11]; rate 0.0625 kg/ha): 3.0
Herbicidal rating AMBEL ([12]; rate 0.0156 kg/ha): 9.0
Herbicidal rating AMBEL ([12]; rate 0.0313 kg/ha): 9.0
Herbicidal rating AMBEL ([12]; rate 0.0625 kg/ha): 9.0

Cn1c(C(F)(F)F)cc(=O)n(-c2cc(N=C3SCC(=O)N3Cc3ccncc3)c(Cl)cc2F)c1=O [Compound 133, 3-{4-Chloro-2-fluoro-5-{[4-oxo-3-(4-pyridylmethyl)-2-thiazolidinylidene]amino}phenyl}-1-methyl-6-(trifluoromethyl)-2,4(1H,3H)-pyrimidinedione]
Preemergence herbicidal rating ABUTH [1, 14]: 0.0
Preemergence herbicidal rating ABUTH [1, 15]: 0.0
Preemergence herbicidal rating ABUTH [1, 16]: 1.0
Preemergence herbicidal rating ABUTH [1, 17]: 5.0
Preemergence herbicidal rating CASOB [2, 14]: 0.0
Preemergence herbicidal rating CASOB [2, 15]: 0.0
Preemergence herbicidal rating CASOB [2, 16]: 0.0
Preemergence herbicidal rating CASOB [2, 17]: 9.0
Preemergence herbicidal rating SETVI [3, 14]: 0.0
Preemergence herbicidal rating SETVI [3, 15]: 0.0
Preemergence herbicidal rating SETVI [3, 16]: 0.0
Preemergence herbicidal rating SETVI [3, 17]: 0.0
Herbicidal rating SETVI ([4]; rate 0.0156 kg/ha): 1.0
Herbicidal rating SETVI ([4]; rate 0.0313 kg/ha): 1.0
Herbicidal rating SETVI ([4]; rate 0.0625 kg/ha): 2.0
Herbicidal rating ECHCG ([5]; rate 0.0156 kg/ha): 1.0
Herbicidal rating ECHCG ([5]; rate 0.0313 kg/ha): 1.0
Herbicidal rating ECHCG ([5]; rate 0.0625 kg/ha): 1.0
herbicidal effect rating, MOOVA ([6]; 0.0313 kg/ha): 3.0
herbicidal effect rating, MOOVA ([6]; 0.0625 kg/ha): 4.0
herbicidal effect rating, MOOVA ([6]; 0.1250 kg/ha): 4.0
herbicidal effect rating, MOOVA ([6]; 0.2500 kg/ha): 6.0
Herbicidal rating ABUTH ([7]; rate 0.0156 kg/ha): 9.0
Herbicidal rating ABUTH ([7]; rate 0.0313 kg/ha): 9.0
Herbicidal rating ABUTH ([7]; rate 0.0625 kg/ha): 9.0
Herbicidal rating ORYSAT ([8]; rate 0.0156 kg/ha): 2.5
Herbicidal rating ORYSAT ([8]; rate 0.0313 kg/ha): 2.5
Herbicidal rating ORYSAT ([8]; rate 0.0625 kg/ha): 3.0
herbicidal effect rating, SAGPY ([9]; 0.0313 kg/ha): 0.0
herbicidal effect rating, SAGPY ([9]; 0.0625 kg/ha): 3.0
herbicidal effect rating, SAGPY ([9]; 0.1250 kg/ha): 3.0
herbicidal effect rating, SAGPY ([9]; 0.2500 kg/ha): 3.0
Herbicidal rating GLXMAW ([10]; rate 0.0156 kg/ha): 5.0
Herbicidal rating GLXMAW ([10]; rate 0.0313 kg/ha): 5.0
Herbicidal rating GLXMAW ([10]; rate 0.0625 kg/ha): 5.0
Herbicidal rating TRZAWR ([11]; rate 0.0156 kg/ha): 2.5
Herbicidal rating TRZAWR ([11]; rate 0.0313 kg/ha): 3.0
Herbicidal rating TRZAWR ([11]; rate 0.0625 kg/ha): 3.5
Herbicidal rating AMBEL ([12]; rate 0.0156 kg/ha): 9.0
Herbicidal rating AMBEL ([12]; rate 0.0313 kg/ha): 6.0
Herbicidal rating AMBEL ([12]; rate 0.0625 kg/ha): 9.0
